Bridge positions count the residues as written; N and C are the ends. Square brackets hold non-standard residues; d marks the D form. Peptide text beside a SMILES is read from it. * marks the point of attachment. Octanoyl = CCCCCCCC(=O)*; Dab = NCC[C@H](N)C(=O)O; Abu = CC[C@H](N)C(=O)O
Legend:
Escherichia coli [1] = test: Antibacterial activity against Escherichia coli IH3080 assessed as growth inhibition at 10 ug after 18 hrs by […] in presence of 1 ug/ml rifampin; assay type: functional
Escherichia coli [2] = test: Antibacterial activity against Escherichia coli IH3080 assessed as growth inhibition at 10 ug after 18 hrs by […]; assay type: functional

| Structure (SMILES) | inhibition zone (IZ) (Escherichia coli [1]) [mm2] | inhibition zone (IZ) (Escherichia coli [2]) |
| --- | --- | --- |
| CCCCCCCC(=O)N[C@H](C(=O)N[C@H](C(=O)N[C@H](CO)C(=O)N[C@H]1CCNC(=O)[C@H]([C@@H](C)O)NC(=O)[C@H](CCN)NC(=O)[C@H](CCN)NC(=O)[C@H](CC(C)C)NC(=O)[C@H](Cc2ccccc2)NC(=O)[C@H](CCN)NC1=O)[C@@H](C)O)[C@@H](C)O | 190 | 160 mm2 |
| CCCCCCCC(=O)N[C@H](C(=O)N[C@H](C)C(=O)N[C@H]1CCNC(=O)[C@H]([C@@H](C)O)NC(=O)[C@H](CCN)NC(=O)[C@H](CCN)NC(=O)[C@H]([C@@H](C)O)NC(=O)[C@H](Cc2ccccc2)NC(=O)[C@H](CCN)NC1=O)[C@@H](C)O | 230 | 60 mm2 |
| CCCCCCCC(=O)N[C@H](C(=O)N[C@@H](CCN)C(=O)N[C@H]1CCNC(=O)[C@H]([C@@H](C)O)NC(=O)[C@H](CC)NC(=O)[C@H](CCN)NC(=O)[C@H](CC(C)C)NC(=O)[C@@H](Cc2ccccc2)NC(=O)[C@H](CCN)NC1=O)[C@@H](C)O (Octanoyl-T[Dab][Dab][Dab][dF]L[Dab][Abu]T; lactam 3-C) | 170 | 0 mm2 |
| CCCCCCCC(=O)N[C@@H](CCN)C(=O)N[C@H](C(=O)N[C@@H](CCN)C(=O)N[C@H]1CCNC(=O)[C@H]([C@@H](C)O)NC(=O)[C@H](CCN)NC(=O)[C@H](CC)NC(=O)[C@H](CC(C)C)NC(=O)[C@@H](Cc2ccccc2)NC(=O)[C@H](CC)NC1=O)[C@@H](C)O (Octanoyl-[Dab]T[Dab][Dab][Abu][dF]L[Abu][Dab]T; lactam 4-C) | 0 | 0 mm2 |
| CCCCCCCC(=O)N[C@H](C(=O)N[C@@H](CC)C(=O)N[C@H]1CCNC(=O)[C@H](CC(C)C)NC(=O)[C@H](CCN)NC(=O)[C@H](CCN)NC(=O)[C@H](CC(C)C)NC(=O)[C@@H](Cc2ccccc2)NC(=O)[C@H](CCN)NC1=O)[C@@H](C)O (Octanoyl-T[Abu][Dab][Dab][dF]L[Dab][Dab]L; lactam 3-C) | 180 | 50 mm2 |
| CCCCCCCC(=O)N[C@H](C)C(=O)N[C@H](C)C(=O)N[C@H]1CCNC(=O)[C@H]([C@@H](C)O)NC(=O)[C@H](CCN)NC(=O)[C@H](CCN)NC(=O)[C@H](CC(C)C)NC(=O)[C@H](Cc2ccccc2)NC(=O)[C@H](CCN)NC1=O | 200 | 0 mm2 |
| CCCCCCCC(=O)N[C@H](C(=O)N[C@@H](CO)C(=O)N[C@H]1CCNC(=O)[C@H]([C@@H](C)O)NC(=O)[C@H](CCN)NC(=O)[C@H](CCN)NC(=O)[C@H](CC(C)C)NC(=O)[C@H](Cc2ccccc2)NC(=O)[C@H](CCN)NC1=O)[C@@H](C)O | 230 | 80 mm2 |
| CC(C)C[C@@H]1NC(=O)[C@@H](Cc2ccccc2)NC(=O)[C@H](CCN)NC(=O)[C@@H](NC(=O)[C@H](CCN)NC(=O)[C@@H](N)[C@@H](C)O)CCNC(=O)[C@H]([C@@H](C)O)NC(=O)[C@H](CCN)NC(=O)[C@H](CCN)NC1=O [POLYMYXIN B NONAPEPTIDE] (H-T[Dab][Dab][Dab][dF]L[Dab][Dab]T; lactam 3-C) | 143 | <=5 mm2 |
| CCCCCCCC(=O)N[C@H](C(=O)N[C@@H](CCN)C(=O)N[C@H]1CCNC(=O)[C@H]([C@@H](C)O)NC(=O)[C@H](CCN)NC(=O)[C@H](CC)NC(=O)[C@H](CC(C)C)NC(=O)[C@@H](Cc2ccccc2)NC(=O)[C@H](CCN)NC1=O)[C@@H](C)O (Octanoyl-T[Dab][Dab][Dab][dF]L[Abu][Dab]T; lactam 3-C) | 250 | 60 mm2 |
| CCCCCCCC(=O)N[C@H](C(=O)N[C@@H](CCN)C(=O)N[C@H]1CCNC(=O)[C@H]([C@@H](C)O)NC(=O)[C@H](CCN)NC(=O)[C@H](CCN)NC(=O)[C@H](CC(C)C)NC(=O)[C@@H](Cc2ccccc2)NC(=O)[C@H](CC)NC1=O)[C@@H](C)O (Octanoyl-T[Dab][Dab][Abu][dF]L[Dab][Dab]T; lactam 3-C) | 100 | 0 mm2 |

Reference: ChEMBL document CHEMBL1671867, “Novel polymyxin derivatives carrying only three positive charges are effective antibacterial agents” (Antimicrob Agents Chemother, 2008)
